Source: patent publication US9738902B2, “Modified PYR/PYL receptors activated by ligands” (priority 2013, dated 2017)

What was measured:
Assay type in all cases: cell-based
PYR1 K59R E141K = biological target: T1, PYR1 K59R E141K (Arabidopsis thaliana, UniProt O49686, E141K/K59R); assay: Y2H Pocket Library Screen (HAB1, X-gal)
T1 construct: expressed in transfected cells; host or cells: S. cerevisiae Y190 two-hybrid reporter strain
Description: (§1) The set of 475 mutant plasmids were individually transformed into the Y190 yeast two hybrid reporter strain co-transformed with pACT-HAB1, as previously described (Park et al., 2009). The yeast strains generated were arrayed into 96-well plates yielding what we refer to as the “pocket library”. The pocket library strains were spotted onto agar plates containing selective synthetic dextrose (minus Leu & Trp) medium that was supplemented with a single test compound at 100 μM. The pocket library strains were separately tested for responsiveness to the following compounds: dichlobenil, benzothiadiazole, mandipropamid, fludioxonil, and benoxacor. After incubating test plates at 30° C. for two days, colonies were chloroform lysed and stained to reveal β-galactosidase expression levels, using previously described methods (Park et al., 2009). Mutants displaying responsiveness to the test compound, if present, were identified by virtue of X-gal staining and then subjected to subsequent optimization efforts. Using this approach we identified mutations that conferred detectable sensitivity to the compounds tested (see entries labeled “Pocket Library Screens” in Table 1).

PYR1 K59R A89C = biological target: T2, PYR1 K59R A89C (Arabidopsis thaliana, UniProt O49686, A89C/K59R); assay: Y2H Pocket Library Screen (HAB1, X-gal)
T2 construct: expressed in transfected cells; host or cells: S. cerevisiae Y190 yeast two-hybrid reporter strain
Description: as §1

PYR1 K59R F159V = biological target: T3, PYR1 K59R F159V (Arabidopsis thaliana, UniProt O49686, F159V/K59R); assay: Y2H Pocket Library Screen (HAB1, X-gal)
T3 construct: expressed in transfected cells; host or cells: S. cerevisiae Y190
Description: as §1

PYR1 K59R E141Y = biological target: T4, PYR1 K59R E141Y (Arabidopsis thaliana, UniProt O49686, E141Y/K59R); assay: Y2H Pocket Library Screen (HAB1, X-gal)
T4 construct: expressed in transfected cells; host or cells: S. cerevisiae Y190 two-hybrid reporter strain
Description: as §1

PYR1 K59R V81I = biological target: T5, PYR1 K59R V81I (Arabidopsis thaliana, UniProt O49686, K59R/V81I); assay: Y2H Pocket Library Screen (HAB1, X-gal)
T5 construct: expressed in transfected cells; host or cells: S. cerevisiae Y190 yeast two-hybrid reporter strain
Description: as §1

PYR1 K59R F159L = biological target: T6, PYR1 K59R F159L (Arabidopsis thaliana, UniProt O49686, F159L/K59R); assay: Y2H Pocket Library Screen (HAB1, X-gal)
T6 construct: expressed in transfected cells; host or cells: S. cerevisiae Y190
Description: as §1

PYR1 K59R F159T = biological target: T7, PYR1 K59R F159T (Arabidopsis thaliana, UniProt O49686, F159T/K59R); assay: Y2H Pocket Library Screen (HAB1, X-gal)
T7 construct: expressed in transfected cells; host or cells: S. cerevisiae Y190
T7 sequence (Q9CAJ0 23-511): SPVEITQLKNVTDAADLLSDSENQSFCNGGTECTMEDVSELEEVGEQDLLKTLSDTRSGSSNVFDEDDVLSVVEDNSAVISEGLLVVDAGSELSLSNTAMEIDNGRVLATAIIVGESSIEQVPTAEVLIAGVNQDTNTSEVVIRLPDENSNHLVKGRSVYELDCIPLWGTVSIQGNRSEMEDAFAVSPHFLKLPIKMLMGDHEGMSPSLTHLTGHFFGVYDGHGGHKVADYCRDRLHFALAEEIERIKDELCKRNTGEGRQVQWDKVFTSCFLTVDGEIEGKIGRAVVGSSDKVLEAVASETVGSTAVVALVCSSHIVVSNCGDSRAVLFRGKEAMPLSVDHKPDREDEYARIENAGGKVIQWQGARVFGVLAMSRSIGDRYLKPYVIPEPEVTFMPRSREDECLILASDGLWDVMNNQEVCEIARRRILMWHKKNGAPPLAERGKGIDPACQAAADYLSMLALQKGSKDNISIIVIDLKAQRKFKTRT
T7 sequence (O49686 whole entry K59R/F159T): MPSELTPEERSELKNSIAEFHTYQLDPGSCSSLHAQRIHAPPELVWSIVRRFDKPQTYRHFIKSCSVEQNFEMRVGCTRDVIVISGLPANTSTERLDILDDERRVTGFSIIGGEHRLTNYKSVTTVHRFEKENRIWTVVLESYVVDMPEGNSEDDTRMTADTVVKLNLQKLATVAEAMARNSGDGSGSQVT
Description: as §1

PYR1 K59R M158V = biological target: T8, PYR1 K59R M158V (Arabidopsis thaliana, UniProt O49686, K59R/M158V); assay: Y2H Pocket Library Screen (HAB1, X-gal)
T8 construct: expressed in transfected cells; host or cells: S. cerevisiae Y190 two-hybrid reporter strain
Description: as §1

PYR1 K59R F159A = biological target: T9, PYR1 K59R F159A (Arabidopsis thaliana, UniProt O49686, F159A/K59R); assay: Y2H Pocket Library Screen (HAB1, X-gal)
T9 construct: expressed in transfected cells; host or cells: S. cerevisiae Y190 two-hybrid reporter strain
Description: as §1

PYR1 K59R F159C = biological target: T10, PYR1 K59R F159C (Arabidopsis thaliana, UniProt O49686, F159C/K59R); assay: Y2H Pocket Library Screen (HAB1, X-gal)
T10 construct: expressed in transfected cells; host or cells: S. cerevisiae Y190 two-hybrid reporter strain
Description: as §1

PYR1 K59R V164K = biological target: T11, PYR1 K59R V164K (Arabidopsis thaliana, UniProt O49686, K59R/V164K); assay: Y2H Pocket Library Screen (HAB1, X-gal)
T11 construct: expressed in transfected cells; host or cells: S. cerevisiae Y190
Description: as §1

PYR1 K59R V83L = biological target: T12, PYR1 K59R V83L (Arabidopsis thaliana, UniProt O49686, K59R/V83L); assay: Y2H Pocket Library Screen (HAB1, X-gal)
T12 construct: expressed in transfected cells; host or cells: S. cerevisiae Y190 yeast two-hybrid reporter strain
Description: as §1

PYR1 K59R F159M = biological target: T13, PYR1 K59R F159M (Arabidopsis thaliana, UniProt O49686, F159M/K59R); assay: Y2H Pocket Library Screen (HAB1, X-gal)
T13 construct: expressed in transfected cells; host or cells: S. cerevisiae Y190
Description: as §1

PYR1 K59R T162W = biological target: T14, PYR1 K59R T162W (Arabidopsis thaliana, UniProt O49686, K59R/T162W); assay: Y2H Pocket Library Screen (HAB1, X-gal)
T14 construct: expressed in transfected cells; host or cells: S. cerevisiae Y190
T14 sequence (O49686 whole entry K59R/T162W): as the sequence (O49686 whole entry K59R/F159T) above, with T159F, T162W counted along it
T14 sequence (Q9CAJ0 23-511, further chain): as the sequence (Q9CAJ0 23-511) above
Description: as §1

PYR1 K59R A160G = biological target: T15, PYR1 K59R A160G (Arabidopsis thaliana, UniProt O49686, A160G/K59R); assay: Y2H Pocket Library Screen (HAB1, X-gal)
T15 construct: expressed in transfected cells; host or cells: S. cerevisiae Y190
T15 sequence (O49686 whole entry K59R/A160G): as the sequence (O49686 whole entry K59R/F159T) above, with T159F, A160G counted along it
T15 sequence (Q9CAJ0 23-511, further chain): as the sequence (Q9CAJ0 23-511) above
Description: as §1

PYR1 K59R M158C = biological target: T16, PYR1 K59R M158C (Arabidopsis thaliana, UniProt O49686, K59R/M158C); assay: Y2H Pocket Library Screen (HAB1, X-gal)
T16 construct: expressed in transfected cells; host or cells: S. cerevisiae Y190 two-hybrid reporter strain
Description: as §1

PYR1 K59R L117C = biological target: T17, PYR1 K59R L117C (Arabidopsis thaliana, UniProt O49686, K59R/L117C); assay: Y2H Pocket Library Screen (HAB1, X-gal)
T17 construct: expressed in transfected cells; host or cells: S. cerevisiae Y190 two-hybrid reporter strain
Description: as §1

PYR1 K59R T162Y = biological target: T18, PYR1 K59R T162Y (Arabidopsis thaliana, UniProt O49686, K59R/T162Y); assay: Y2H Pocket Library Screen (HAB1, X-gal)
T18 construct: expressed in transfected cells; host or cells: S. cerevisiae Y190
Description: as §1

PYR1 K59R V164Y = biological target: T19, PYR1 K59R V164Y (Arabidopsis thaliana, UniProt O49686, K59R/V164Y); assay: Y2H Pocket Library Screen (HAB1, X-gal)
T19 construct: expressed in transfected cells; host or cells: S. cerevisiae Y190 two-hybrid reporter strain
Description: as §1

PYR1 K59R F159I = biological target: T20, PYR1 K59R F159I (Arabidopsis thaliana, UniProt O49686, F159I/K59R); assay: Y2H Pocket Library Screen (HAB1, X-gal)
T20 construct: expressed in transfected cells; host or cells: S. cerevisiae Y190 two-hybrid reporter strain
Description: as §1

PYR1 K59R M158I = biological target: T21, PYR1 K59R M158I (Arabidopsis thaliana, UniProt O49686, K59R/M158I); assay: Y2H Pocket Library Screen (HAB1, X-gal)
T21 construct: expressed in transfected cells; host or cells: S. cerevisiae Y190 two-hybrid reporter strain
Description: as §1

PYR1 K59R M158T = biological target: T22, PYR1 K59R M158T (Arabidopsis thaliana, UniProt O49686, K59R/M158T); assay: Y2H Pocket Library Screen (HAB1, X-gal)
T22 construct: expressed in transfected cells; host or cells: S. cerevisiae Y190 two-hybrid reporter strain
T22 sequence (Q9CAJ0 23-511): as above
T22 sequence (O49686 whole entry K59R/M158T): as the sequence (O49686 whole entry K59R/F159T) above, with M158T, T159F counted along it
Description: as §1

PYR1 K59R T162K = biological target: T23, PYR1 K59R T162K (Arabidopsis thaliana, UniProt O49686, K59R/T162K); assay: Y2H Pocket Library Screen (HAB1, X-gal)
T23 construct: expressed in transfected cells; host or cells: S. cerevisiae Y190
Description: as §1

PYR1 K59R A160G V164K = biological target: T24, PYR1 K59R A160G V164K (Arabidopsis thaliana, UniProt O49686, A160G/K59R/V164K); assay: Y2H Combinatorial Mutagenesis Screen I (HAB1, X-gal)
T24 construct: expressed in transfected cells; host or cells: S. cerevisiae Y190 two-hybrid reporter strain
Source text: (§2) This screening approach yielded mutants at ligand contacting residues that alter sensitivity to specific ligands. We reasoned that receptor sensitivity could be improved by systematically constructing combinations of the best mutant variants identified in the first round of screening. To test this, we constructed mutant combinations using the strongest mutations identified for mandipropamid, benzothiadiazole, benoxacor or fludioxonil sensitivity. The mutations selected for combinatorial mutagenesis are listed in bold type in Table 1; The mutant combinations were constructed using the QuickChange Lightning Multi Site-Directed PCR Mutagenesis kit (Agilent, USA) using pBD-PYR1^K59R template DNA and mutagenic primers, essentially as previously described (Mosquna et al., 2011). The mutant combinations were sequence validated, introduced into the pACT-HAB1 Y190 reporter strain and then tested for responsiveness to a range of compound concentrations (100, 50, 25, 10, 1, 0.2, 0.1 or 0 μM each test compound). These efforts yielded double mutant receptor variants with improved sensitivity for the 4 compound/receptor pairs examined (see entries labeled “Combinatorial Mutagenesis Screen I” in Table 1).

PYR1 K59R A89C V164K = biological target: T25, PYR1 K59R A89C V164K (Arabidopsis thaliana, UniProt O49686, A89C/K59R/V164K); assay: as above
T25 construct: expressed in transfected cells; host or cells: S. cerevisiae Y190 two-hybrid reporter strain
Source text: as §2

PYR1 K59R A160G L117C = biological target: T26, PYR1 K59R A160G L117C (Arabidopsis thaliana, UniProt O49686, A160G/K59R/L117C); assay: as above
T26 construct: expressed in transfected cells; host or cells: S. cerevisiae Y190 two-hybrid reporter strain
T26 sequence (Q9CAJ0 23-511, stated change not applied): as the sequence (Q9CAJ0 23-511) above
T26 sequence (O49686 whole entry K59R/L117C/A160G): as the sequence (O49686 whole entry K59R/F159T) above, with L117C, T159F, A160G counted along it
Source text: as §2

PYR1 K59R A89C E141Y = biological target: T27, PYR1 K59R A89C E141Y (Arabidopsis thaliana, UniProt O49686, A89C/E141Y/K59R); assay: as above
T27 construct: expressed in transfected cells; host or cells: S. cerevisiae Y190 two-hybrid reporter strain
T27 sequence (Q9CAJ0 23-511): as the sequence (Q9CAJ0 23-511) above
T27 sequence (O49686 whole entry K59R/A89C/E141Y): as the sequence (O49686 whole entry K59R/F159T) above, with A89C, E141Y, T159F counted along it
Source text: as §2

PYR1 K59R A89C L117C = biological target: T28, PYR1 K59R A89C L117C (Arabidopsis thaliana, UniProt O49686, A89C/K59R/L117C); assay: as above
T28 construct: expressed in transfected cells; host or cells: S. cerevisiae Y190 two-hybrid reporter strain
Source text: as §2

PYR1 K59R L117C V164K = biological target: T29, PYR1 K59R L117C V164K (Arabidopsis thaliana, UniProt O49686, K59R/L117C/V164K); assay: as above
T29 construct: expressed in transfected cells; host or cells: S. cerevisiae Y190 two-hybrid reporter strain
T29 sequence (O49686 whole entry K59R/L117C/V164K): as the sequence (O49686 whole entry K59R/F159T) above, with L117C, T159F, V164K counted along it
T29 sequence (Q9CAJ0 23-511, stated change not applied, further chain): as the sequence (Q9CAJ0 23-511) above
Source text: as §2

PYR1 K59R A89C A160G = biological target: T30, PYR1 K59R A89C A160G (Arabidopsis thaliana, UniProt O49686, A160G/A89C/K59R); assay: as above
T30 construct: expressed in transfected cells; host or cells: S. cerevisiae Y190 two-hybrid reporter strain
Source text: as §2

PYR1 K59R E141Y A160G = biological target: T31, PYR1 K59R E141Y A160G (Arabidopsis thaliana, UniProt O49686, A160G/E141Y/K59R); assay: as above
T31 construct: expressed in transfected cells; host or cells: S. cerevisiae Y190 two-hybrid reporter strain
Source text: as §2

Structure (SMILES): c1ccc2snnc2c1 [Benzothiadiazole, benzothiadiazole]
- Threshold (PYR1 K59R E141K): 100 µM
- Threshold (PYR1 K59R A89C): 100 µM
- Threshold (PYR1 K59R F159V): 100 µM
- Threshold (PYR1 K59R E141Y): 100 µM
- Threshold (PYR1 K59R V81I): 100 µM
- Threshold (PYR1 K59R F159L): 100 µM
- Threshold (PYR1 K59R F159T): 100 µM
- Threshold (PYR1 K59R M158V): 100 µM
- Threshold (PYR1 K59R F159A): 100 µM
- Threshold (PYR1 K59R F159C): 100 µM
- Threshold (PYR1 K59R V164K): 100 µM
- Threshold (PYR1 K59R V83L): 100 µM
- Threshold (PYR1 K59R F159M): 100 µM
- Threshold (PYR1 K59R T162W): 100 µM
- Threshold (PYR1 K59R A160G): 100 µM
- Threshold (PYR1 K59R M158C): 100 µM
- Threshold (PYR1 K59R L117C): 100 µM
- Threshold (PYR1 K59R T162Y): 100 µM
- Threshold (PYR1 K59R V164Y): 100 µM
- Threshold (PYR1 K59R F159I): 100 µM
- Threshold (PYR1 K59R M158I): 100 µM
- Threshold (PYR1 K59R M158T): 100 µM
- Threshold (PYR1 K59R T162K): 100 µM
- Threshold (PYR1 K59R A160G V164K): 5 µM
- Threshold (PYR1 K59R A89C V164K): 0.2 µM
- Threshold (PYR1 K59R A160G L117C): 25 µM
- Threshold (PYR1 K59R A89C E141Y): 0.2 µM
- Threshold (PYR1 K59R A89C L117C): 25 µM
- Threshold (PYR1 K59R L117C V164K): 100 µM
- Threshold (PYR1 K59R A89C A160G): 5 µM
- Threshold (PYR1 K59R E141Y A160G): 5 µM
